The record followed here is publication PMC9693918, “May Sulfonamide Inhibitors of Carbonic Anhydrases from Mammaliicoccus sciuri Prevent Antimicrobial Resistance Due to Gene Transfer to Other Harmful Staphylococci?” (International Journal of Molecular Sciences, 2022).

The structures appear in SMILES notation. Read-outs that look alike come from different tables or passages of the source.

This assay concerns the target T1, MscCAγ (M. sciuri γ-CA) (Mammaliicoccus sciuri, UniProt A0AB37HNM1).
T1 construct: gene OWO77_11715
T1 sequence (A0AB37HNM1 1-169): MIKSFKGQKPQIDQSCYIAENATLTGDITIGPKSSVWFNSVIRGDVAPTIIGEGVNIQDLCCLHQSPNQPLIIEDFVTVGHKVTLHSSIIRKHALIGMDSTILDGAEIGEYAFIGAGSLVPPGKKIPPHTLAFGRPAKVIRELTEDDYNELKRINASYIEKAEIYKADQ
The assay can be described thus: stopped-flow CO2 hydration assay, phenol red. It counts as biochemical. From the text:
stopped-flow CO2 hydration assay, phenol red on MscCAγ (M. sciuri γ-CA)

For the molecule `NS(=O)(=O)Cc1noc2ccccc12` [ZNS], the Ki (read-out: KI (nM) ^a / MscCAγ) is 923 nM.

Regarding `CCN1CCCC1CNC(=O)c1cc(S(N)(=O)=O)ccc1OC` (stereo not shown) [SLP], the Ki (read-out: KI (nM) ^a / MscCAγ) was found to be 2200 nM.

In the case of `CC1(C)O[C@@H]2[C@@H](CO[C@@]3(COS(N)(=O)=O)OC(C)(C)O[C@@H]23)O1` [TPM], the Ki (read-out: KI (nM) ^a / MscCAγ) amounted to 578 nM.

In the case of `NS(=O)(=O)c1cc(Cl)c(Cl)c(S(N)(=O)=O)c1` [DCP], the Ki (read-out: KI (nM) ^a / MscCAγ) came to 8580 nM.

Take `CC(=O)N=c1sc(S(N)(=O)=O)nn1C` [MZA]: the Ki (read-out: KI (nM) ^a / MscCAγ) is 94.5 nM.

For the molecule `Cc1onc(-c2ccccc2)c1-c1ccc(S(N)(=O)=O)cc1` [VLX], under “read-out: KI (nM) ^a / MscCAγ”, the Ki was found to be 1540 nM.

Consider `Nc1ccc(S(=O)(=O)Nc2ccc(S(N)(=O)=O)cc2)cc1` [compound 22, 22], for which the Ki (read-out: KI (nM) ^a / MscCAγ) was found to be 72.5 nM.

In the case of `NS(=O)(=O)c1ccc(N2CCCCS2(=O)=O)cc1` [SLT], the Ki (read-out: KI (nM) ^a / MscCAγ) stood at 405 nM.

On to `NS(=O)(=O)c1ccc(S(=O)(=O)Nc2cccc3c(Cl)c[nH]c23)cc1` [IND], for which the Ki (read-out: KI (nM) ^a / MscCAγ) was 369 nM.

As to `O=C1NS(=O)(=O)c2ccccc21` [SAC], the Ki (read-out: KI (nM) ^a / MscCAγ) was 29700 nM.

For `NS(=O)(=O)c1nnc(NS(=O)(=O)c2ccccc2)s1` [BZA], the Ki (read-out: KI (nM) ^a / MscCAγ) was determined as 444 nM.

Regarding `Cc1ccc(-c2cc(C(F)(F)F)nn2-c2ccc(S(N)(=O)=O)cc2)cc1` [CLX], the Ki (read-out: KI (nM) ^a / MscCAγ) came out at 3020 nM.

`NS(=O)(=O)c1ccc(CCNS(=O)(=O)c2ccc([N+](=O)[O-])cc2CO)cc1` [compound 21, 21]: the Ki (read-out: KI (nM) ^a / MscCAγ) was determined as 83.4 nM.

For `NS(=O)(=O)c1cc2c(cc1Cl)NCNS2(=O)=O` [HCT], for the setting “read-out: KI (nM) ^a / MscCAγ”, the Ki was 18300 nM.

Take `CCN[C@H]1CN(CCCOC)S(=O)(=O)c2sc(S(N)(=O)=O)cc21` [BRZ]: where the note is “read-out: KI (nM) ^a / MscCAγ”, the Ki stood at 100 nM.

The molecule `NCCc1ccc(S(N)(=O)=O)cc1` [compound 6, 6] yielded a Ki of 176 nM.
